Measurements published in PMC4742142, “Identification of novel, in vivo active Chk1 inhibitors utilizing structure guided drug design” (Oncotarget, 2015).

Tests used:
Chk1 [1] = molecular target: T1, Chk1 (Homo sapiens, UniProt O14757); test: In vitro kinase assay, Chk1; assay type: biochemical
T1 sequence (O14757 1-476): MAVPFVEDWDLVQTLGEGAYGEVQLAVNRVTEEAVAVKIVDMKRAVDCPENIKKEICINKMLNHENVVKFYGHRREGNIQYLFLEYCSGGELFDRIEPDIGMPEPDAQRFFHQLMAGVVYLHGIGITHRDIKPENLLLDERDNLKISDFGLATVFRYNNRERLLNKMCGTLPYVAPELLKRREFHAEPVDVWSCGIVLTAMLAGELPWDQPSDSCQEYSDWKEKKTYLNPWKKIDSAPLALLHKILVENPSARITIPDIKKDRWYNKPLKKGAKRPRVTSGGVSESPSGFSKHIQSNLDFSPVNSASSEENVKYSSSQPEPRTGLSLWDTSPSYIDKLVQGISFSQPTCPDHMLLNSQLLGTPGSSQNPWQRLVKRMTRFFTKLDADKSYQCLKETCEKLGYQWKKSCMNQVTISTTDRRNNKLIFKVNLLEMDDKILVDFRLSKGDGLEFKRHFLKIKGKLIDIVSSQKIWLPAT
Procedure: (§1) Kinase assays were performed as previously described.

Colo205 = test: Single agent cytotoxicity assay (SRB, 72 hours); assay type: cell-based; settings: Homo sapiens, COLO 205, Colo205, colon
Procedure: (§2) All cells were obtained from the American Type Culture Collection and maintained as low passage stocks. Cells were routinely cultured in DMEM or RPMI1640 containing 10% FCS and 1% penicillin / streptomycin (Invitrogen). The cytotoxicity of V158411 was determined following exposure of cells in 96 well plates using a 10-point titration for 72 hours. Cell proliferation was determined using sulphorhodamine B staining following protein precipitation with 10% TCA.

NCI-H460 = test: Single agent cytotoxicity assay (SRB, 72 hours); assay type: cell-based; settings: Homo sapiens, NCI-H460, lung
Procedure: as §2

HCT116 = test: Single agent cytotoxicity assay (SRB, 72 hours); assay type: cell-based; settings: Homo sapiens, HCT-116, HCT116, colon
Procedure: as §2

NCI-H520 = test: Single agent cytotoxicity assay (SRB, 72 hours); assay type: cell-based; settings: Homo sapiens, NCI-H520, lung
Procedure: as §2

PC3 = test: Single agent cytotoxicity assay (SRB, 72 hours); assay type: cell-based; settings: Homo sapiens, PC-3, PC3, prostate
Procedure: as §2

SW620 = test: Single agent cytotoxicity assay (SRB, 72 hours); assay type: cell-based; settings: Homo sapiens, SW-620, SW620, colon
Procedure: as §2

A549 = test: Single agent cytotoxicity assay (SRB, 72 hours); assay type: cell-based; settings: Homo sapiens, A549, lung
Procedure: as §2

HT29 = test: Single agent cytotoxicity assay (SRB, 72 hours); assay type: cell-based; settings: Homo sapiens, HT-29, HT29, colon
Procedure: as §2

[2] = Plasma pharmacokinetics, IV bolus; assay type: in vivo; settings: 10 mg/kg IV; for Vd: read-out: Vss
Procedure: (§3) Dosing of animals and collection of samples was conducted by Quotient Bioresearch (Rushden) Ltd, UK. V158411 was administered by intravenous (IV) bolus injection to female Balb/C mice, male Sprague-Dawley rats or male beagle dogs. Plasma samples were prepared by protein precipitation with acetonitrile containing internal standard (IS; dextromethorphan, 0.5 μg/mL); the analysis plate was centrifuged at 3,000 rpm for 10 minutes at 4°C. […] The ratios of analyte against IS peak areas were calculated, and concentrations derived from calibration lines generated by Quanlynx (Waters Ltd.).
(§4) Pharmacokinetic parameters were calculated using the software package WinNonLin (Pharsight Corp.). Data was analyzed using noncompartmental analysis and fitted using plasma concentration versus time curves.

Chk1 [3] = molecular target: T1, Chk1; test: Wide panel binding assay (386 kinases); settings: Chk1, 50 nM
Procedure: (§5) Selectivity against the cell cycle kinase CDK1 is considered critical for the pharmacological activity of Chk1 inhibitors as inhibiting it would prevent the G2 checkpoint abrogation and entry into mitosis; critical for the potentiation of cytotoxic DNA damage. Against a panel of 386 kinases in a wide panel binding assay, V158411 inhibited the activity of one kinase (Chk1) in the range 99-100%, three kinases 90-99% and 19 kinases 65-90% at 50 nM (Supplementary Table 1).

Chk2 = Chk2 (Homo sapiens, UniProt O96017); test: In vitro kinase assay, Chk2; assay type: biochemical; settings: full length Chk2
Chk2, sequence (O96017 whole entry): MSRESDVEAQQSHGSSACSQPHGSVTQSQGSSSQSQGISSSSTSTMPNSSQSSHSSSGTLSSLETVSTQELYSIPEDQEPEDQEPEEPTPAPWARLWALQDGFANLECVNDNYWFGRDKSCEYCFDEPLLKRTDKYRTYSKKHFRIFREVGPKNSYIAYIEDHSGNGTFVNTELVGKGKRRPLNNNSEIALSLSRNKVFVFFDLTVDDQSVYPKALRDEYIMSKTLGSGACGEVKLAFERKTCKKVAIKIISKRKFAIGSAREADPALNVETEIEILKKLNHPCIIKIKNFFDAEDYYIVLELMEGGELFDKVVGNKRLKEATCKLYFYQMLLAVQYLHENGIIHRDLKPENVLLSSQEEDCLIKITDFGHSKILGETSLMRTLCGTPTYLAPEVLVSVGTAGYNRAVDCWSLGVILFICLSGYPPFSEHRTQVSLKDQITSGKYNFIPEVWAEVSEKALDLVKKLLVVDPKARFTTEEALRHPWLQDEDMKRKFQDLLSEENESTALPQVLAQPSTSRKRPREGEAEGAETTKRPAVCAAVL
Procedure: as §1

CDK1 = CDK1 (Homo sapiens, UniProt P06493); test: In vitro kinase assay, CDK1; assay type: biochemical
CDK1, sequence (P06493 whole entry): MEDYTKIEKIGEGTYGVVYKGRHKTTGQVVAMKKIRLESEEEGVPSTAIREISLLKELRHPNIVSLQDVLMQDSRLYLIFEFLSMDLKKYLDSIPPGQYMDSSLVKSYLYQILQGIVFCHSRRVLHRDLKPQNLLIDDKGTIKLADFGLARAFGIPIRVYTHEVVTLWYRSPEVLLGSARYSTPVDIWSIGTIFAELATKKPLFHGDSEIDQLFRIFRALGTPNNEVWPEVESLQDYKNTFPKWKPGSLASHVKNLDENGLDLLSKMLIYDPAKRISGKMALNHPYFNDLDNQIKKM
CDK1, sequence (P14635 whole entry partner): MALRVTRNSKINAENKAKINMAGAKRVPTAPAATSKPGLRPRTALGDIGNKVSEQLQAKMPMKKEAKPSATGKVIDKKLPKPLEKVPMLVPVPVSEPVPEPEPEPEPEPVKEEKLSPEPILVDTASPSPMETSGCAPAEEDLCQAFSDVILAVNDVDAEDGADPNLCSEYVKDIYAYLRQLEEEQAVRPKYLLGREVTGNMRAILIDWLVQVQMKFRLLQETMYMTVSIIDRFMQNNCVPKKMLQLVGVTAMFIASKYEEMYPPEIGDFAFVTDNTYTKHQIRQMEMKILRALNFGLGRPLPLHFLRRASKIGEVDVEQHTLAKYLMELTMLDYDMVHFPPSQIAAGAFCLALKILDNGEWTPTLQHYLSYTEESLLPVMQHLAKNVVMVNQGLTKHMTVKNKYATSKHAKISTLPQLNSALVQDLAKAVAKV
Procedure: as §1

[4] = Plasma and tumor pharmacokinetics in HT29 tumor bearing mice; assay type: in vivo; settings: mouse, HT29 tumor bearing mice, 30 mg/kg IV
Procedure: as §3, §4

panel of 386 kinases = test: Wide panel binding assay, whole panel; settings: at pharmacologically relevant doses
Procedure: as §5

Structure (SMILES): CN(C)CC(C)(C)COc1ccc2[nH]c(-c3cc(NC(=O)c4cnn(Cc5ccccc5)c4)c[nH]c3=O)cc2c1 [V158411]
- IC50 (Chk1 [1]): 0.0044 µM
- GI50 (Colo205): 1.6 ± 0.42 µM
- GI50 (NCI-H460): 2.7 ± 0.93 µM
- GI50 (HCT116): 4 ± 0.78 µM
- GI50 (NCI-H520): 0.55 ± 0.14 µM
- GI50 (PC3): 9.5 ± 1 µM
- GI50 (SW620): 0.5 ± 0.033 µM
- GI50 (A549): 1.4 ± 0.35 µM
- GI50 (HT29): 0.65 ± 0.25 µM
- AUC(0-t) ([2]; female, Balb/C, mouse): 7.1 µg·h/mL
- clearance ([2]; female, Balb/C, mouse): 1.2 L/h/kg
- half-life ([2]; female, Balb/C, mouse): 2.9 h
- Vd ([2]; female, Balb/C, mouse): 3.3 L/kg
- AUC(0-t) ([2]; male, Sprague-Dawley, rat): 6.91 µg·h/mL
- clearance ([2]; male, Sprague-Dawley, rat): 1.39 L/h/kg
- half-life ([2]; male, Sprague-Dawley, rat): 3.3 h
- Vd ([2]; male, Sprague-Dawley, rat): 2.4 L/kg
- AUC(0-t) ([2]; male, beagle, dog): 16 µg·h/mL
- clearance ([2]; male, beagle, dog): 0.636 L/h/kg
- half-life ([2]; male, beagle, dog): 3.2 h
- Vd ([2]; male, beagle, dog): 1.2 L/kg
- Percent inhibition at 50 nM (Chk1 [3]; 0.05 µM): 99-100%
- inhibition at 0.05 µM (Chk1 [3]; read-out: Percent inhibition at 50 nM): 100%
- IC50 (Chk2): 0.0045 µM
- IC50 (CDK1): > 50 µM
- selectivity for CDK1 (CDK1; Chk1 versus CDK1): more than 10 000 fold
- clearance ([4]; plasma): 1.44 L/h/kg
- half-life ([4]; plasma, read-out: half-life (plasma) (converted)): 4.1 h
- Vd ([4]; plasma, read-out: volume of distribution): 2.5 L/kg
- half-life ([4]; read-out: elimination half-life in the tumor (converted)): 22 h
- Kp ([4]; tumor versus plasma, read-out: tissue/plasma AUC0-24h ratio): 4.7
- selectivity for Chk1 over the majority of the kinases in the panel (panel of 386 kinases): > 100 fold
